# Measurements: patent US20250032623A1, “HETEROBIFUNCTIONAL COMPOUNDS AND THEIR USE IN TREATING DISEASE” (HALDA THERAPEUTICS OPCO, INC., priority 2021, published 2025)
# Tests used:
# EGFR = target: T1, EGFR (Homo sapiens, UniProt P00533); assay: KdELECT binding assay, EGFR
# T1 construct: purchased
# Procedure: Exemplary compounds were tested for ability to bind to EGFR.
# (§1) Compounds were tested using a KdELECT assay. Kinase-tagged T7 phage strains were prepared in an E. coli host derived from the BL21 strain. E. coli were grown to log-phase and infected with T7 phage and incubated with shaking at 32° C. until lysis. The lysates were centrifuged and filtered to remove cell debris. The remaining kinases were produced in HEK-293 cells and subsequently tagged with DNA for qPCR detection. Streptavidin-coated magnetic beads were treated with biotinylated small molecule ligands for 30 minutes at room temperature to generate affinity resins for kinase assays. The liganded beads were blocked with excess biotin and washed with blocking buffer (SeaBlock (Pierce), 1% BSA, 0.05% Tween 20, 1 mM DTT) to remove unbound ligand and to reduce non-specific binding. Binding reactions were assembled by combining kinases, liganded affinity beads, and test compounds in 1× binding buffer (20% SeaBlock, 0.17×PBS, 0.05% Tween 20, 6 mM DTT). Test compounds were prepared as 111× stocks in 100% DMSO. Kd values were determined using an 11-point 3-fold compound dilution series with three DMSO control points. All compounds for Kd measurements are distributed by acoustic transfer (non-contact dispensing) in 100% DMSO. The compounds were then diluted directly into the assays such that the final concentration of DMSO was 0.9%. All reactions performed in polypropylene 384-well plate. Each was a final volume of 0.02 mL. The assay plates were incubated at room temperature with shaking for 1 hour and the affinity beads were washed with wash buffer (1× PBS, 0.05% Tween 20). The beads were then re-suspended in elution buffer (1× PBS, 0.05% Tween 20, 0.5 μM nonbiotinylated affinity ligand) and incubated at room temperature with shaking for 30 minutes. The kinase concentration in the eluates was measured by qPCR.
# [1] = target: T2, EGFR T790M, L858R (amino acids 669-1011 Accession Number NP_005219.2) (Homo sapiens, UniProt P00533, L858R/T790M); assay: KdELECT binding assay (Eurofins Discovery), EGFR T790M, L858R; details: read-out: EGFR DM Kd
# T2 construct: purchased Eurofins Discovery; host or cells: mammalian cells (HEK-293)
# T2 sequence (P00533 669-1011 T790M/L858R): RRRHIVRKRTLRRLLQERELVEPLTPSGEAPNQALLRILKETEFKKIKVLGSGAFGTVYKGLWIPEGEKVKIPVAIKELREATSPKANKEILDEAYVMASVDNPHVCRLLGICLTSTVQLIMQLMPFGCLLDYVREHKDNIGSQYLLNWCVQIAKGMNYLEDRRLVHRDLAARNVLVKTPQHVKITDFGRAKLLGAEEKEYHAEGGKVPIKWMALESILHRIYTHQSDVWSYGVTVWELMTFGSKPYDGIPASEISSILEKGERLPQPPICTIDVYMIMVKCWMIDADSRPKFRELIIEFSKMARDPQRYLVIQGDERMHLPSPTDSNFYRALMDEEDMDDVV
# Procedure: (§2) Exemplary compounds were tested for ability to bind to EGFR WT (amino acids 669-1011, Accession Number NP_005219.2) or EGFR T790M, L858R (amino acids 669-1011 Accession Number NP_005219.2) expressed from bacteria or mammalian cells, respectively. Compounds were tested using the KdELECT assay at Eurofins Discovery.
# as §1, with “Kinase-tagged” for “Compounds were tested using a KdELECT assay. Kinase-tagged”
# [2] = target: T3, EGFR WT (amino acids 669-1011, Accession Number NP_005219.2) (Homo sapiens, UniProt P00533); assay: KdELECT binding assay (Eurofins Discovery), EGFR WT
# T3 construct: purchased Eurofins Discovery; host or cells: bacteria (E. coli, BL21-derived, T7 phage)
# T3 sequence (P00533 669-1011): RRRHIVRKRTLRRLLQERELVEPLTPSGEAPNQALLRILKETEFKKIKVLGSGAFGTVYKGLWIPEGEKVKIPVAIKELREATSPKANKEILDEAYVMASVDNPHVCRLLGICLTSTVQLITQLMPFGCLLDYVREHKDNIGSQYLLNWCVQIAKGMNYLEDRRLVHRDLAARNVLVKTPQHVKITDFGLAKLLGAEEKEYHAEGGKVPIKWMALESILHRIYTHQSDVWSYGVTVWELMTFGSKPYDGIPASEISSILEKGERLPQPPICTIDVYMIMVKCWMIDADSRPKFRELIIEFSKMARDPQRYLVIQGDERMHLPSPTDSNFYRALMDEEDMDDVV
# Procedure: as §2
# as §1, with “Kinase-tagged” for “Compounds were tested using a KdELECT assay. Kinase-tagged”
# HEK293 cells = assay: Cellular growth inhibition assay (CellTiter-Glo), HEK293 cells; format: cell-based; details: Homo sapiens, 72 h, three days compound treatment, CellTiter-Glo 2.0, read-out: CTG HEK293 GI50
# Procedure: Exemplary compounds were tested for ability to inhibit the proliferation of HEK293 cells or HeLa cells.
# HEK293 and HeLa cells were cultured in DMEM medium supplemented with 10% fetal bovine serum and 1% Penn/Strep. Cells were seeded in white 384-well plates at 500 cells/well in […] complete medium. Following seeding, plates were spun at 300×g for three minutes and cultured at 37° C. with 5% CO2 in a humidified tissue culture incubator.
# After 24 hours, compounds were titrated in 100% DMSO and diluted in complete cell culture medium. […] of compound/media mixture was added to cells to bring total volume in well to […]. DMSO alone was used as a negative control. P lates were then spun at 300×g for three minutes and stored at 37° C. with 5% CO2 for three days.
# On Day 0 and Day 3 of compound treatment, cell viability was quantified with CellTiter-Glo 2.0 reagent (Promega). After equilibrating microplates at room temperature for 30 minutes, 25 μL CellTiter-Glo 2.0 reagent was dispensed into each well to bring total volume to […]. Plates were mixed on shaker for 2 minutes at 500 rpm, followed by a 10-minute incubation at room temperature. Following a quick spin, luminescence readings were measured with an EnVision Plate Reader. Data was normalized to DMSO treated Day 0 and Day 3 readings. A four-parameter non-linear regression curve fit was applied to dose-response data in GraphPad Prism data analysis software to determine the half maximal growth inhibitory concentration (GI50) for each compound.
# T1 sequence (P00533 25-1210): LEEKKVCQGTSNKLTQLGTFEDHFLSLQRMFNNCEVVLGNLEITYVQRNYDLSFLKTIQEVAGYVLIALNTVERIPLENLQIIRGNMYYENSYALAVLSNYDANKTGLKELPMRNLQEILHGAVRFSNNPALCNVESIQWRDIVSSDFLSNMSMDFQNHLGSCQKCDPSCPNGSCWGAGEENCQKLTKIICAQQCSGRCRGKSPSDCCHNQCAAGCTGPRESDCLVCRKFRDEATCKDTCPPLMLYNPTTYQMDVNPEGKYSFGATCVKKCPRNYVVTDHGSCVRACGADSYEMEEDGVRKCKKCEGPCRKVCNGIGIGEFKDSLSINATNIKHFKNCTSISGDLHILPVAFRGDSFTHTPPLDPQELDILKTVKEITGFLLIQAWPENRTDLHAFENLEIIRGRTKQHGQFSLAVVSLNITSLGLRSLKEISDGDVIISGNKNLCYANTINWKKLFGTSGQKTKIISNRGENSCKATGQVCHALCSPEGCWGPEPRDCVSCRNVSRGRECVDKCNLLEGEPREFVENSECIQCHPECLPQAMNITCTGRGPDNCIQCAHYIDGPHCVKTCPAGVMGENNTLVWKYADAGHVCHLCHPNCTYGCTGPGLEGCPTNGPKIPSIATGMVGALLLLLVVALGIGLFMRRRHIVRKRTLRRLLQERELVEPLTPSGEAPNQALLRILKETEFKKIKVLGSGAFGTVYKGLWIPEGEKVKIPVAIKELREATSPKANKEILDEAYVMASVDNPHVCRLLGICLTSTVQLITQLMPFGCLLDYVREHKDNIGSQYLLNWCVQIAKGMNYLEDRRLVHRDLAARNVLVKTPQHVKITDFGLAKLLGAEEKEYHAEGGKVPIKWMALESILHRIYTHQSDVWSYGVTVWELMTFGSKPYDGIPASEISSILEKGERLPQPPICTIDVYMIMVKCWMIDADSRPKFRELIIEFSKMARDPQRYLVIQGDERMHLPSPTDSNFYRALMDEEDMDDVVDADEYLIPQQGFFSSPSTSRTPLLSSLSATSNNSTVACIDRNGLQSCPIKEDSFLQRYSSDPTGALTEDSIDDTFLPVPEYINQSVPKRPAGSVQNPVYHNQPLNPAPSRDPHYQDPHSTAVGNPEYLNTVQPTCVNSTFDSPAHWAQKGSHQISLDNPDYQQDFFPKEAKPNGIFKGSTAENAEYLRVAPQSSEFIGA
Kd (EGFR) [µM],Kd [1] [µM],Kd [2] [µM],Compound,GI50 (HEK293 cells) [µM]
< 0.05,< 0.05,0.05 to 0.5,"C=CC(=O)Nc1cc(Nc2nccc(-c3cn(C)c4ccccc34)n2)c(OC)cc1N(C)CCN(C)CCCCCCCCNS(=O)(=O)c1ccc(Nc2ncc(Br)c(Nc3cccc(F)c3C(N)=O)n2)cc1 [Compound I-28, 2-[[5-bromo-2-[4-[8-[2-[5-methoxy-N-methyl-4-[[4-(1-methylindol-3-yl)pyrimidin-2-yl]amino]-2-(prop-2-enoylamino)anilino]ethyl-methyl-amino]octylsulfamoyl]anilino]pyrimidin-4-yl]amino]-6-fluoro-benzamide]",
,< 0.05,0.05 to 0.5,"C=CC(=O)Nc1cc(Nc2nccc(-c3cn(C)c4ccccc34)n2)c(OC)cc1N(C)CCN(C)CCCCNS(=O)(=O)c1ccc(Nc2ncc(Br)c(Nc3cccc(F)c3C(N)=O)n2)cc1 [Compound I-29, 2-[[5-bromo-2-[4-[4-[2-[5-methoxy-N-methyl-4-[[4-(1-methylindol-3-yl)pyrimidin-2-yl]amino]-2-(prop-2-enoylamino)anilino]ethyl-methyl-amino]butylsulfamoyl]anilino]pyrimidin-4-yl]amino]-6-fluoro-benzamide]",
,< 0.05,0.05 to 0.5,"C=CC(=O)Nc1cc(Nc2nccc(-c3cn(C)c4ccccc34)n2)c(OC)cc1N(C)CCN(C)CCOCCOCCOCCOCCNS(=O)(=O)c1ccc(Nc2ncc(Br)c(Nc3cccc(F)c3C(N)=O)n2)cc1 [Compound I-32, 2-[[5-bromo-2-[4-[2-[2-[2-[2-[2-[2-[5-methoxy-N-methyl-4-[[4-(1-methylindol-3-yl)pyrimidin-2-yl]amino]-2-(prop-2-enoylamino)anilino]ethyl-methyl-amino]ethoxy]-ethoxy]ethoxy]ethoxy]ethylsulfamoyl]anilino]pyrimidin-4-yl]amino]-6-fluoro-benzamide]",
< 0.05,< 0.05,0.05 to 0.5,"C=CC(=O)Nc1cc(Nc2nccc(-c3cn(C)c4ccccc34)n2)c(OC)cc1N(C)CCN(C)CCOCCOCCOCCOCCOCCOCCNS(=O)(=O)c1ccc(Nc2ncc(Br)c(Nc3cccc(F)c3C(N)=O)n2)cc1 [Compound I-34, 2-[[5-bromo-2-[4-[2-[2-[2-[2-[2-[2-[2-[2-[5-methoxy-N-methyl-4-[[4-(1-methylindol-3-yl)pyrimidin-2-yl]amino]-2-(prop-2-enoylamino)anilino]ethyl-methyl-amino]ethoxy]ethoxy]ethoxy]-ethoxy]ethoxy]ethoxy]ethylsulfamoyl]anilino]pyrimidin-4-yl]amino]-6-fluoro-benzamide]",
,< 0.05,0.5 to 2.5,C=CC(=O)Nc1cc(Nc2nccc(-c3cn(C)c4ccccc34)n2)c(OC)cc1N(C)CCN(C)CCOCCOCCOCCOCCOCCOCCON(C)C(=O)N1N=C(c2cc(F)ccc2F)SC1(CCCN)c1ccccc1 (stereo not shown) [Compound I-68],
0.5 to 2.5,,0.5 to 2.5,"C=CC(=O)Nc1cc(Nc2nccc(-c3cn(C)c4ccccc34)n2)c(OC)cc1N(C)CCN(C)CCOCCOCCOCCOCCNC(=O)c1ccc(Nc2ncc3c(n2)N(C2CCCC2)[C@H](CC)C(=O)N3C)c(OC)c1 [Compound I-112, 4-[[(7R)-8-cyclopentyl-7-ethyl-5-methyl-6-oxo-7H-pteridin-2-yl]amino]-3-methoxy-N-[2-[2-[2-1[2-[2-1[2-1[5-methoxy-N-methyl-4-1[[4-(1-methylindol-3-yl)pyrimidin-2-yl]amino]-2-(prop-2-enoylamino)anilino]ethyl-methyl-amino]ethoxy]ethoxy]ethoxy]ethoxy]ethyl]benzamide]",
0.5 to 2.5,,0.5 to 2.5,"C=CC(=O)Nc1cc(Nc2nccc(-c3cn(C)c4ccccc34)n2)c(OC)cc1N(C)CCN(C)CCOCCOCCOCCOCCOCCOCCNC(=O)c1ccc(Nc2ncc3c(n2)N(C2CCCC2)[C@H](CC)C(=O)N3C)c(OC)c1 [Compound I-113, (R)—N-(2-(2-acrylamido-5-methoxy-4-((4-(1-methyl-1H-indol-3-yl)pyrimidin-2-yl)amino)phenyl)-5-methyl-8,11,14,17,20,23-hexaoxa-2,5-diazapentacosan-25-yl)-4-((8-cyclopentyl-7-ethyl-5-methyl-6-oxo-5,6,7,8-tetrahydropteridin-2-yl)amino)-3-methoxybenzamide]",1.5 to 5
> 2.5,0.05 to 0.5,> 2.5,"C=CC(=O)Nc1cc(Nc2nccc(-c3cn(C)c4ccccc34)n2)c(OC)cc1N(C)CCN(C)CCNC(=O)c1ccc(Nc2ncc3c(n2)N(C2CCCC2)[C@H](CC)C(=O)N3C)c(OC)c1 [Compound I-115, 4-[[(7R)-8-cyclopentyl-7-ethyl-5-methyl-6-oxo-7H-pteridin-2-yl]amino]-3-methoxy-N-[2-[2-[5-methoxy-N-methyl-4-[1[4-(1-methylindol-3-yl)pyrimidin-2-yl]amino]-2-(prop-2-enoylamino)anilino]ethyl-methyl-amino]ethyl]benzamide]",0.5 to 1.5
> 2.5,0.05 to 0.5,> 2.5,"CC[C@@H]1C(=O)N(C)c2cnc(Nc3ccc(C(=O)NCCOCCOCCN(C)C/C=C/C(=O)Nc4cc(Nc5nccc(-c6cn(C)c7ccccc67)n5)c(OC)cc4N(C)CCN(C)C)cc3OC)nc2N1C1CCCC1 [Compound I-117, 4-[[(7R)-8-cyclopentyl-7-ethyl-5-methyl-6-oxo-7H-pteridin-2-yl]amino]-N-[2-[2-[2-1[[(E)-4-1[2-[2-(dimethylamino)ethyl-methyl-amino]-4-methoxy-5-1[[4-(1-methylindol-3-yl)pyrimidin-2-yl]amino]anilino]-4-oxo-but-2-enyl]-methyl-amino]ethoxy]ethoxy]ethyl]-3-methoxy-benzamide]",0.5 to 1.5
